Data as given in patent US20190119193A1, “COMPOSITION FOR REGULATING PLANT GROWTH, METHOD FOR TREATING PLANTS THEREWITH, AND ACTIVE INGREDIENT THEREOF” (Ivan Aleksandrovich Starikov, priority 2016, published 2019).

System: spring wheat of “Lubava” variety
Assay: Field tests of DMOA and DEOA on wheat
Assay type: in vivo
Conditions: for Effect on wheat growth, yield and quality (in words): aqueous solutions in the proposed concentrations, field test under stress (abundant rainfalls)
Method: After that DMOA and DEOA were separately dissolved in dimethyl sulfoxide to give solutions of 10 g/L concentration, then water was added to give aqueous solutions of DMOA with the concentrations of 5.5·10^−8 M, 5.5·10^−9 M, 1.8·10^−9 M, 5.5·10^−10 M, 1.8·10^−10 M, 1.8·10^−11 M, and DEOA with the concentrations of 4.8·10^−8 M, 4.8·10^−9 M, […], 4.8·10^−10 M, 1.6·10^−10 M, 1.6·10^−11 M.
The field tests of the obtained aqueous solutions of DMOA and DEOA on spring wheat of “Lubava” variety were carried out. The tests were carried out in agroclimatic zone I, on the experimental field of the Grain Crops Protection Systems Laboratory of the Agricultural Research Center of Federal State Budgetary Scientific Institution “Moscow Research Institute of Agriculture” “Nemchinovka” “(Moscow Region, Odintsovo district, settlement Novoivanovskaya, 2015) according to the method adopted for registration tests of plant growth regulators (Guidelines for conducting registration tests of new forms of fertilizers, bioregulators and plant regulators. Moscow-Vladimir, 2009, p. 104; The method of state variety testing of agricultural crops. Grain, cereal, grain legumes and forage crops. Issue 1, Moscow, 1985, page 269, Issue 2, Moscow, 1989, p. 194; OST 10-108-87; GOST 26212-91; GOST-91).
The soil of the experimental field is sod-podzolic on clay loam mantle.
Tests were conducted starting from Apr. 29 to Jul. 30, 2015. In the first half of the growing period the weather conditions were unfavorable (abundant rainfalls in May and June), which is a significant stress factor.
Control test—without growth regulators treatment.
Area of experimental plots—100 m^2, accounting area—50 m^2. Fourfold replication of the experiments.
Preceding crop was winter wheat. Immediately after the autumn harvesting of winter crops the area was treated with disc harrow to a depth of 10-12 cm. Then, fall plowing to a depth of 18-20 cm by a reverse plow, harrowing, and moisture conservation were carried out.
Before seeding the test crop, the soil was fertilized with nitrogen-phosphorus-potassium fertilizer in a dose of N64P64K64. Date of sowing: Apr. 29, 2015 Seeding rate: 5.0 million of germinated grains per 1 hectare.
Before seeding, all the seeds were treated with “Vincite Forte” fungicide with a consumption rate of 1.0 L per ton of seeds, as well as the aqueous solution of DMOA or DEOA selected for the experiment with a consumption rate of 10 L per ton of seeds (this aqueous solution was directly used as a liquid for treatment) or without a growth regulator, depending on the experiment. The following concentrations of the test solutions were used for treatment: 5.5·10^−8 M, 5.5·10^−9 M and 5.5·10^−10 M of DMOA; 4.8·10^−8 M, 4.8·10^−9 M and 4.8·10^−10 M of DEOA.
At the tillering phase (May 23) the crops were sprayed against weeds with “Linthur” herbicide at a dose of 175.0 g/ha, pesticides “BI-58 Novy” were used against pests at a dose of 0.5 L/ha, and against the leaf-stems diseases the crops were sprayed at the early ear emergence stage (June 20) with “Alto Super” fungicide at a dose of 0.5 L/ha together with aqueous solutions of DMOA or DEOA (or without them). Spraying with aqueous solutions of DMOA or DEOA allows to additionally stimulate plant growth. In this case the dosage of aqueous solutions of DMEA or DEOA was 300 L/ha (these solutions were sprayed directly). Spraying with aqueous solutions of DMEA and DEOA was carried out for all variants, where DMOA and DEOA were used for seed treatment. The concentration of the spraying solution was one-thirtieth of the concentration of the solution previously used for treatment of seeds. Accordingly, for DMOA: 1.8·10^−9 M, 1.8·10^−10 M, 1.8·10^−11 M; and for DEOA: 1.6·10^−9 M, 1.6·10^−10 M, 1.6·10^−11 M.
Harvesting of experimental plots was carried out on July 30, before harvesting test sheaves of 0.25 m^2 of each variant of the experiment were taken for structural analysis. […]

[1] = seeds treated 4.8 · 10^−8M, sprayed 1.6·10^−9 M
[2] = seeds treated 4.8 · 10^−9M, sprayed 1.6·10^−10 M
[3] = seeds treated 4.8 · 10^−10M, sprayed 1.6·10^−11 M
[4] = seeds treated 5.5 · 10^−8M, sprayed 1.8·10^−9 M
[5] = seeds treated 5.5 · 10^−9M, sprayed 1.8·10^−10 M
[6] = seeds treated 5.5 · 10^−10M, sprayed 1.8·10^−11 M

For `CCOC(=O)C=C([O-])C(=O)OCC.[Na+]` [DEOA, sodium salt of diethyl ester of oxaloacetic acid], the “Effect on wheat growth, yield and quality (in words)” value was “express ability to stimulate growth, increase yield and quality of wheat”, the 1000 grains weight [1] was 48.15 g and the Gluten [1] was 31.85 % dry basis. The Main head length [1] was 8.6 cm, the “Number of grains from main head” value [1] was 39 pcs and the Number of stems [1] was 612 pcs/m^2. For the same compound, the Plant height [1] was 101.7 cm, the Productive tilling capacity [1] was 1.34 and the “Protein (N 5.7)” value [1] was 14.88 % dry basis. For the same compound, the Starch [1] was 61.15 % dry basis, the “Weight of grains from main head” value [1] was 1.91 g and the Yield [1] was 5.50 t/ha. The “Yield, % (comparing to control)” value [1] was 112.7%, the 1000 grains weight [2] was 46.88 g and the Gluten [2] was 32.91 % dry basis. The Main head length [2] was 9.2 cm, the “Number of grains from main head” value [2] was 41 pcs and the Number of stems [2] was 408 pcs/m^2. The Plant height [2] was 99.4 cm, the Productive tilling capacity [2] was 1.33 and the “Protein (N 5.7)” value [2] was 14.95 % dry basis. For the same compound, the Starch [2] was 61.43 % dry basis, the “Weight of grains from main head” value [2] was 1.96 g and the Yield [2] was 5.32 t/ha. The “Yield, % (comparing to control)” value [2] was 109.0%, the 1000 grains weight [3] was 48.38 g and the Gluten [3] was 31.61 % dry basis. For the same compound, the Main head length [3] was 10.8 cm, the “Number of grains from main head” value [3] was 51 pcs and the Number of stems [3] was 324 pcs/m^2. The Plant height [3] was 104.3 cm, the Productive tilling capacity [3] was 1.69 and the “Protein (N 5.7)” value [3] was 14.14 % dry basis. The Starch [3] was 61.60 % dry basis, the “Weight of grains from main head” value [3] was 2.65 g and the Yield [3] was 5.00 t/ha. For the same compound, the “Yield, % (comparing to control)” value [3] was 102.5%.

With “Sodium salt of dimethyl ester of oxaloacetic acid [DMOA]” the “Effect on wheat growth, yield and quality (in words)” value was “express ability to stimulate growth, increase yield and quality of wheat”, the 1000 grains weight [4] was 46.22 g and the Gluten [4] was 33.64 % dry basis. For the same compound, the Main head length [4] was 8.7 cm, the “Number of grains from main head” value [4] was 36 pcs and the Number of stems [4] was 420 pcs/m^2. The Plant height [4] was 101.5 cm, the Productive tilling capacity [4] was 1.57 and the “Protein (N 5.7)” value [4] was 14.88 % dry basis. The Starch [4] was 61.54 % dry basis, the “Weight of grains from main head” value [4] was 1.76 g and the Yield [4] was 6.44 t/ha. The “Yield, % (comparing to control)” value [4] was 131.9%, the 1000 grains weight [5] was 47.07 g and the Gluten [5] was 34.71 % dry basis. For the same compound, the Main head length [5] was 8.9 cm, the “Number of grains from main head” value [5] was 37 pcs and the Number of stems [5] was 752 pcs/m^2. The Plant height [5] was 105.1 cm, the Productive tilling capacity [5] was 1.21 and the “Protein (N 5.7)” value [5] was 14.92 % dry basis. For the same compound, the Starch [5] was 61.72 % dry basis, the “Weight of grains from main head” value [5] was 1.79 g and the Yield [5] was 6.49 t/ha. The “Yield, % (comparing to control)” value [5] was 133.0%, the 1000 grains weight [6] was 46.51 g and the Gluten [6] was 33.81 % dry basis. For the same compound, the Main head length [6] was 8.8 cm, the “Number of grains from main head” value [6] was 37 pcs and the Number of stems [6] was 396 pcs/m^2. For the same compound, the Plant height [6] was 104.1 cm, the Productive tilling capacity [6] was 1.48 and the “Protein (N 5.7)” value [6] was 14.73 % dry basis. The Starch [6] was 61.27 % dry basis, the “Weight of grains from main head” value [6] was 1.71 g and the Yield [6] was 6.41 t/ha. The “Yield, % (comparing to control)” value [6] was 131.4%.
